Assays:
[1] = system: epithelioid carcinoma Panc-1 cells; details: 2 μM FCCP, FIGS. 1A-1C
Procedure: (§1) Uncoupled respiration measurements were measured in adherent cells epithelioid carcinoma Panc-1 cells (ATCC, CRL-1469) with FCCP. Cells were cultured in Dulbecco's Modified Eagle's Medium (DMEM) supplemented with 10% FBS at 37 C, 5% CO2 incubator according to supplier information. Day before the assay, cells were detached using Trypsin-EDTA solution and seeded in XFe96 cell culture miniplates (Agilent) at 10,000 cells/well. Cells were incubated for 18 hr at 37 C, 5% CO2 incubator. To measure OCR, cells were washed, and cell culture medium was replaced by XF DMEM pH 7.4 supplemented with 10 mM glucose, 2 mM glutamine and 1 mM pyruvate.

[2] = system: Human Peripheral Blood CD4+ T cells
Procedure: as §1

[3] = system: Human Peripheral Blood NK cells; details: 1.5, 2, 2.5 or 3 μM, FIGS. 12A-12B
Procedure: NK cells were cultured as described herein (e.g., in Example 1).

FCCP
oxygen consumption on addition of uncoupler [1]: robust increase in oxygen consumption
OCR after the rotenone+antimycin A injection ([2]; T cells, FIGS. 2B, 3B): overestimation of OCR
stability of uncoupled respiration during the 3 min of the measurement ([2]; T cells, after oligomycin, FIGS. 2A, 2C, 3A, 3C): inconsistent uncoupled respiration
maximal respiration in titration of uncoupler ([2]; naïve CD4+ T cells, 0.5, 1, 1.5, 2, 2.5 or 3 μM, FIGS. 4A-4B): not as robust nor was there an increase in a dose-dependent manner
maximal respiration in titration of uncoupler [3]: not as robust
